Measurements: US20170007568A1, “USE OF COMPOSITION CONTAINING IRON (II) AMINO ACID CHELATE IN PREPARATION OF DRUG FOR AMELIORATING DIABETES” (PROFEAT BIOTECHNOLOGY CO., LTD., priority 2014, published 2017)

Experiments:
Assay type in all cases: in vivo, C57BL/6JNR male mice
[1] = test system: type 2 diabetes mice (nicotinamide/streptozotocin + high fat diet); assay: Glycated hemoglobin (HbA1c) of drug-induced diabetic mice; conditions: dose not printed, one month
Protocol: (§1) C57BL/6JNR male mice at 6 weeks of age (purchased from National Laboratory Animal Center) were fed with normal diet for 1 week. Each of the mice was injected intraperitoneally with 240 mg/kg nicotinamide, and after 15 minutes, each of the mice was injected intraperitoneally with 100 mg/kg streptozotocin. Two days later, each of the mice was injected with nicotinamide and streptozotocin with the same dosages and method as shown above, followed by feeding with the high fat diet (60% fat). Two months later, the mice having fasting blood glucose higher than 140 mg/dl and impaired glucose tolerance (which meant that the blood glucose values were not measured within normal range after injecting glucose for 2 hours) were picked to be type 2 diabetes mice.
(§2) The mice were divided into 4 groups which included a control group (supplied with phosphate solution), a metformin (Met) group, a composition A1 with low dose (4 mg/kg/day) group, and a composition A1 with high dose (12 mg/kg/day) group. The weights of the mice were measured every 3 days, and the blood glucose values, oral glucose tolerance assay (OGTT), glycated hemoglobin (HbA1c) and insulin variances of the mice were measured every 4 weeks.
(§3) The blood glucose values were measured with a Chemistry Analyzer (Hitachi, Ltd., Japan). […] The insulin variance was measured with enzyme-linked immunosorbent assay (ELISA) (Mercodia, Ltd. Sweden).

[2] = test system: type 2 diabetes mice (nicotinamide/streptozotocin + high fat diet); assay: Insulin (ELISA) of drug-induced diabetic mice; conditions: dose not printed, one month
Protocol: as §1, §2, §3

[3] = test system: type 2 diabetes mice (nicotinamide/streptozotocin + high fat diet); assay: Fasting blood glucose of drug-induced diabetic mice; conditions: dose not printed, one month
Protocol: as §1, §2, §3

[4] = test system: type 2 diabetes mice (nicotinamide/streptozotocin + high fat diet); assay: HOMA-IR index of drug-induced diabetic mice; conditions: dose not printed, one month
Protocol: as §1, §2
The index of homeostasis model assessment for insulin resistance (HOMA-IR) was calculated from the following formula:
HOMA-IR index=insulin (μU/ml)×glucose (mmol/L)/22.5.

[5] = test system: type 2 diabetes mice (nicotinamide/streptozotocin + high fat diet); assay: Oral glucose tolerance assay (OGTT) in drug-induced diabetic mice; conditions: metformin group, dose not given
Protocol: as §1, §2, §3

Q: `NCC(=O)O` [Glycine] was tested. Which “Glycated hemoglobin (HbA1c)” value [1] did it give?
A: 3.71 ± 0.03

Q: What about the insulin [2] of the same compound?
A: 12.47 ± 2.36

Q: And the Fasting blood glucose [3]?
A: 182.88 ± 11.20

Q: And the HOMA-IR [4]?
A: 5.23 ± 1.73

Q: What does the source list for `CN(C)C(=N)N=C(N)N` [Metformin]?
A: glucose tolerance (OGTT) [5]: improved; Glycated hemoglobin (HbA1c) [1]: 3.57 ± 0.04; insulin [2]: 11.11 ± 6.47; Fasting blood glucose [3]: 169.00 ± 10.77; HOMA-IR [4]: 4.53 ± 1.42; HOMA-IR ([4]; listed as metformin): 4.53
